In patent US20120190752A1, “EXO-S-MECAMYLAMINE METHOD, USE, AND COMPOUND FOR TREATMENT” (Targacept Inc., priority 2009, published 2012):

System: subjects with major depressive disorder (MDD) who were inadequate responders to citalopram
Assay: SIS (Sheehan Irritability Scale), total and individual items, Phase 2b add-on trial
Assay type: in vivo, human
Design: SIS Adj. Mean change / SIS total score change Adjusted Mean / SIS Anger With Others change Adjusted Mean / SIS Anger With Self change Adjusted Mean / SIS Edginess change Adjusted Mean / SIS Irritability change Adjusted Mean / SIS Moodiness change Adjusted Mean / SIS Temper change Adjusted Mean: scale not given here
Settings: for SIS Difference vs placebo / SIS Adj. Mean change: ITT; for SIS Difference vs placebo: Week 8 to Week 16 LOCF; for SIS Adj. Mean change: change from Week 8 (double-blind baseline) to Week 16 LOCF, add-on to citalopram
Experimental: In more detail, a multi-center double-blind, randomized, placebo-controlled, parallel group, flexible dose titration study of TC-5214 as adjunctive therapy in subjects with major depressive disorder (MDD) who were inadequate responders to citalopram was conducted in centers in the US and India. The study consisted of a screening period, baseline/washout period, open-label phase, double-blind phase, and a follow-up visit. Subject participation in the study could continue for up to 16 weeks of treatment. Following a washout period of up to 28 days for other antidepressants, subjects with MDD and a MADRS total score >/=28 and a Clinical Global Impression-Severity (CGI-S) score >/=4 were enrolled on Day 1 into an open-label citalopram-only phase of the study. This phase lasted 8 weeks, with citalopram (CIT) dose increased from a once-daily dose of 20 mg (Day 1 through Week 4) to 40 mg (Week 4 through Week 8). A total of 579 subjects entered the open-label citalopram phase. At Week 8, subjects who tolerated 40 mg CIT, but whose MADRS score was reduced <50% from baseline and no lower than 17, and CGI-S≧4, were considered inadequate responders. These subjects (n=270) were randomized in a double-blind fashion to receive either placebo or TC-5214-23 as add-on therapy to continued CIT. The double-blind phase of the study also lasted 8 weeks (Week 8 to Week 16). Study drug, TC-5214-23 or placebo, was started at 2 mg daily (1 mg twice per day [BID] dosing), added on to continuing CIT (40 mg PO qd). After 2 weeks of treatment, the dose of TC-5214 could be increased to 4 mg (2 mg BID) or continued unchanged, with up-titration based upon good tolerability and inadequate therapeutic response. After a further 2 weeks, the dose of TC-5214 could be increased again to 8 mg (4 mg BID) if judged appropriate by the investigator, based upon good tolerability and inadequate therapeutic response. At any time during the double-blind phase of the study, placebo or TC-5214-23 could be reduced to the previous dose level following the emergence of unacceptable adverse events (AEs). […] At this follow-up, any signs or symptoms of relapse were evaluated. If a subject was prematurely discontinued from the study between Week 8 and Week 16 for any reason, the investigator was to make every effort to perform all evaluations as per protocol, assuming the subject had reached the end of the double-blind add-on treatment phase. These evaluations were to be made as soon as possible and within 2 weeks of discontinuation. […] There was no meaningful difference in results as a function of age, gender, site, or smoking status. [table] With regard to efficacy endpoints, the following tables present efficacy used in the ITT (Intent-to-Treat) and PP (Per Protocol) populations unless otherwise specific. The primary inference was based upon Week 16 visit using the ITT population. Change from baseline was obtained by subtracting the baseline values from the individual on-treatment values. Change from Week 16 was obtained by subtracting the Week 16 values from the individual follow-up visit (Week 18/19) values. If either the baseline or Week 16 or on-treatment or follow-up value was missing, the change from baseline or Week 16 value was also set to missing. To account for missing data, the last observation carry forward (LOCF) method was used for the ITT and PP populations. Thus, the last available on-therapy observation for a subject, including the observation at premature discontinuation, was used to estimate subsequent missing data points. For efficacy, baseline data were collected at Week 8 in the double-blind augmentation phase electronic case report form pages. For SIS, the endpoint was the change from Week 8 (double-blind baseline) to Week 16 of the SIS. Changes were analyzed using ANCOVA. Each SIS item score was also analyzed using ANCOVA. […]

[1] = ITT Population, Double Blind Week 16 LOCF, change from Week 8 (double-blind baseline)
[2] = ITT Population, Double Blind Week 18 LOCF (Follow-up)
[3] = ITT and PP populations, result in words
[4] = PP Population, Double Blind Week 16 LOCF, change from Week 8 (double-blind baseline)
[5] = PP Population, Double Blind Week 18 LOCF (Follow-up)

CNC1(C)C2CCC(C2)C1(C)C (stereo in doubt) [TC-5214, (S)—N,2,3,3-tetramethylnorbornan-2-amine]
SIS total score change Adjusted Mean [1]: −18.21 | SIS total score change Mean Difference between TC-5214 and Placebo [1]: 8.76 | SIS total score change Adjusted Mean [2]: −0.68 | SIS total score change Mean Difference between TC-5214 and Placebo [2]: −0.51 | SIS total score change from baseline compared with placebo [3]: statistically significant decreases (improvements) | each SIS individual item change from baseline compared with placebo [3]: statistically significant decreases (improvements) | SIS Difference vs placebo: −8.54 (−11.65, −5.44) | SIS Difference vs placebo (listed as TC-5214 + CIT): −8.54 | SIS Adj. Mean change: −18.21 (1.12) | SIS Adj. Mean change (listed as TC-5214 + CIT): −18.21 | SIS total score change Adjusted Mean [4]: −19.96 | SIS total score change Mean Difference between TC-5214 and Placebo [4]: 10.04 | SIS total score change Adjusted Mean [5]: −0.77 | SIS total score change Mean Difference between TC-5214 and Placebo [5]: −0.34
